{"source": "patent US20060094003A1", "about": "“Acetylcholine-dependent current as a novel ionic target for atrial fibrillation” (priority 2004, published 2006)", "key": {"[1]": {"molecular_target": "IKATP (Homo sapiens, UniProt Q14654)", "sequence (Q14654 whole entry, species assumed)": "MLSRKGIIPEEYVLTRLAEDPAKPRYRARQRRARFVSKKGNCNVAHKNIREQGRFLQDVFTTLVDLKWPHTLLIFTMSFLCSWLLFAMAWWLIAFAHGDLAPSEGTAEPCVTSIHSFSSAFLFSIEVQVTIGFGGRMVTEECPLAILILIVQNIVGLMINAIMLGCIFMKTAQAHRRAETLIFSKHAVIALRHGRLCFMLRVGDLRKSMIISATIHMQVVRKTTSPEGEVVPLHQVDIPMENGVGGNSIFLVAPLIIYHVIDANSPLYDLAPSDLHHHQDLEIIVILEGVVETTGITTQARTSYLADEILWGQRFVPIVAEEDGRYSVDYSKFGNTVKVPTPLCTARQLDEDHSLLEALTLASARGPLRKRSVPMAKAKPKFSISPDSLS", "sequence (O60706 whole entry partner, species assumed)": "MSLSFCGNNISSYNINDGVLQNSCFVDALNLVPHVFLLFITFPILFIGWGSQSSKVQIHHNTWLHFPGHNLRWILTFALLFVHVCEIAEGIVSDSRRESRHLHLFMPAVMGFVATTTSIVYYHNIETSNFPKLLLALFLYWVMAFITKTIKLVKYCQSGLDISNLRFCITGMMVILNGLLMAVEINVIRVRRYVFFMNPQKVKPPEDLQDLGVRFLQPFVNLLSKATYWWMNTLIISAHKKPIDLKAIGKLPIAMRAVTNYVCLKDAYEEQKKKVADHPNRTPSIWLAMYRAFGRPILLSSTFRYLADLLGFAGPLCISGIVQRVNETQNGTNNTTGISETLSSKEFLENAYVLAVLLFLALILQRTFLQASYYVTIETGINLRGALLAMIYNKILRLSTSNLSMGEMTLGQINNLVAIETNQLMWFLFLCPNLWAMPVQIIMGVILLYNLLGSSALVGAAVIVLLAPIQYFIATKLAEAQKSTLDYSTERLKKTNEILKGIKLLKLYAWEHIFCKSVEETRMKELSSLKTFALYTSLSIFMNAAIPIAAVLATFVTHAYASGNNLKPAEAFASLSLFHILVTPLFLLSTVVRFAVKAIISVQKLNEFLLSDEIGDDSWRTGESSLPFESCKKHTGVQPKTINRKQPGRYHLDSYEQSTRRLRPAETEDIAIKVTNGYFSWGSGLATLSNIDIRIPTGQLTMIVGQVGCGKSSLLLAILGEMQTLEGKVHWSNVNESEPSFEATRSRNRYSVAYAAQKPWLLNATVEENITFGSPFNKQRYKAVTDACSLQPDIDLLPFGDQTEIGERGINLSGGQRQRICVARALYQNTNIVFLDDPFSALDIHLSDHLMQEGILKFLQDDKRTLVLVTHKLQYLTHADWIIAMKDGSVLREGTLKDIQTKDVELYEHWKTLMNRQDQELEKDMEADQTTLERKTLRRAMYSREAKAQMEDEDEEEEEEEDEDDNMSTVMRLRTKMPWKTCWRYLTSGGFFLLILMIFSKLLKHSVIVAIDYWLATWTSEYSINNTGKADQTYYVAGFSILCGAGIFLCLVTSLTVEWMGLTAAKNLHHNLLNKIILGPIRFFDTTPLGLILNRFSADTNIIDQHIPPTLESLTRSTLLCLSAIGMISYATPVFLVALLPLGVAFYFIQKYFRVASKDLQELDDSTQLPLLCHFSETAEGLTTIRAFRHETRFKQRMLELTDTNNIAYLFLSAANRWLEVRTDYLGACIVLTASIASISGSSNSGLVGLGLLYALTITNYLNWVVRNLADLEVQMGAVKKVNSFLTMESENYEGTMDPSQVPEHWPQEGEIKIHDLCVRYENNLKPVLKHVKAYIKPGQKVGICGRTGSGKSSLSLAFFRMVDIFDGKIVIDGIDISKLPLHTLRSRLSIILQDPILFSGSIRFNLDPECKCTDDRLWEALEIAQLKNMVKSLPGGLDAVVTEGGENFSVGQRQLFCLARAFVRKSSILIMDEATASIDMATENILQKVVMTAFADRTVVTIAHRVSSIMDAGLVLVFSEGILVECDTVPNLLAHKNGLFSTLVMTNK", "conditions": "at concentrations of 8 to 30 nM; cited from earlier work"}, "[2]": {"tested_on": "multicellular canine atrial preparations", "assay": "Action potential recording with standard microelectrodes in multicellular canine atrial preparations (LA and PV)", "conditions": "for APD90 / APD25 / APD50: after tertiapin-Q (200 nM per table title); for APD90: atropine present, 2 Hz", "procedure": "Adult mongrel dogs of either sex (weighing about 20-35 kg) were anaesthetized with pentobarbital (30 mg kg^−1 I.V.) and artificially ventilated with room air. Hearts and adjacent lung tissue were relatively quickly excised through a left lateral thoracotomy and immersed in oxygenated Tyrode solution (composition detailed hereinbelow) at room temperature. Removal of the heart and lungs produced circulatory arrest, resulting in relatively effective and relatively humane killing. A left atrial (LA) preparation with the PVs intact was perfused via the left circumflex coronary artery, and subjected to either standard fine-tipped microelectrode recording of action potentials (APs) or cardiomyocyte isolation with collagenase-containing solutions, as previously described (Ehrlich et al. 2003). Six dogs were subjected to atrial tachycardia-induced remodeling induced by 1 week of atrial pacing at about 400 beats min^−1 after ablation of the AV node, as described in Li et al. 1999. Animal care and handling procedures followed the guidelines of the Canadian Council on Animal Care.\nTo isolate LA and PV cardiomyocytes, the proximal circumflex artery was cannulated and the distal ends of PV myocardial sleeves (approximately 1-1.5 cm from the PV-LA junction) were marked with silk thread prior to subsequent enzyme perfusion with collagenase (100 U ml^−1, Worthington, type II), in order to facilitate localization of PV sleeves after enzymatic digestion. […] With this method, PVs were relatively well-perfused and single cardiomyocytes could be isolated from all veins. Cardiomyocytes obtained from PVs were morphologically similar to LA cardiomyocytes isolated from the LA free wall in the same dogs. All comparisons were based on PV and LA cardiomyocytes isolated from each dog on each experimental day. After isolation, cells were stored at 4° C. and studied on the same day. For standard microelectrode experiments, intact tissue preparations including the LA and adjacent PVs were mounted in a chamber and perfused via the circumflex artery with oxygenated Krebs solution at 36±0.5° C. (see for example Kneller et al. 2002).\nFine-tipped microelectrodes (resistance 15-20 M when filled with 3 M KCl) coupled to a high input-impedance amplifier were used to record APs as described in Kneller et al. 2002.\nTyrode solution contained (mM): NaCl 136, KCl 5.4, MgCl2 1, CaCl2 1, NaH2PO4 0.33, Hepes 5 and dextrose 10 (pH 7.35 with NaOH). The cell-storage solution contained (mM): KCl 20, KH2PO4 10, dextrose 10, mannitol 40, L-glutamic acid 70, β-OH-butyric acid 10, taurine 20, EGTA 10 and 0.1% bovine serum albumin (pH 7.3, KOH). Nifedipine (5 μM) was used to suppress L-type Ca^2+ current (ICa) in all experiments. 4-Aminopyridine (4-AP, 2 mM) was added to suppress transient outward current (Ito). […] Na+ current (INa) contamination was avoided by using a HP of −40 mV for recording of hyperpolarization-induced currents and by substitution of equimolar Tris-HCl for external NaCl for tail-current recordings. When different external K^+ concentrations were applied, the osmolarity was kept constant by proportionate reduction of NaCl content in the solution. The standard internal solution contained (mM): potassium aspartate 110, KCl 20, MgCl2 1, MgATP 5, GTP (lithium salt) 0.1, Hepes 10, sodium phosphocreatine 5 and EGTA 5.0 (pH 7.3 with KOH). In experiments with K+-free internal solution, potassium aspartate was replaced by equimolar caesium aspartate and KCl by CsCl and pH was set to 7.3 with CsOH. For standard-microelectrode experiments, a solution containing (mM): NaCl 120, KCl 4, KH2PO4 1.2, MgSO4 1.2, NaHCO3 25, CaCl2 1.25 and dextrose 5 (95% O2-5% CO2, pH 7.4) was used to perfuse the tissue.\nFIGS. 5E and F show representative APs before and after 100 nM tertiapin-Q in LA and PV."}}}
{"substance": "tertiapin-Q", "values": [{"measurement": "effect on IKATP (in words)", "setting": "[1]", "result": "no effect"}, {"measurement": "effect on AP duration in LA and PV (in words)", "setting": "[2]; 100 nM tertiapin-Q, 200 nM atropine", "result": "significantly prolonged"}, {"measurement": "APD90", "setting": "[2]; LA, control 202.6 ± 2.6", "result": "242.7 ± 6.2", "unit": "ms"}, {"measurement": "APD25", "setting": "[2]; LA, control 78.1 ± 2.8", "result": "84.7 ± 4.0", "unit": "ms"}, {"measurement": "APD50", "setting": "[2]; LA, control 130.2 ± 4.0", "result": "146.8 ± 3.2", "unit": "ms"}, {"measurement": "APD90", "setting": "[2]; PV, control 190.4 ± 4.3", "result": "234.2 ± 9.9", "unit": "ms"}, {"measurement": "APD25", "setting": "[2]; PV, control 71.3 ± 3.4", "result": "86.1 ± 5.0", "unit": "ms"}, {"measurement": "APD50", "setting": "[2]; PV, control 104.0 ± 3.8", "result": "126.8 ± 6.9", "unit": "ms"}]}
